Experimental findings from US5597824A, “Analogs of oxetanyl purines and pyrimidines” (Abbott Laboratories, priority 1992, dated 1997) are described below.

≈ marks a conversion by molar mass, not a printed value.

Series [1] relates to Herpes simplex type 1 (HSV-1) strain E-377. Kind of series: CPE-inhibition assay, HSV-1 strain E-377 in Vero cells. In kind it is cell-based, Herpes simplex virus type 1. The following applies: HSV-1 (E-377), minimum cytotoxic concentration / ID50. The method, then: (§1) The challenge viruses were propagated and assayed in cells that were pregrown as monolayer cultures in plastic tissue culture flasks and 96-well plates, using cell culture media appropriate for the host cell cultures. The following viruses and host cell cultures were employed:
(§2) green monkey kidney (Vero)
(§3) On the day of use, a weighed sample of each compound to be evaluated was dissolved and diluted in serial 10^0.5 dilutions in the culture medium appropriate for each virus-host cell system.
Mammalian cells were pregrown as monolayers in wells of COSTAR 96-well tissue culture plates using suitable cell culture media. Stock viruses were pretitered according to the method of Reed and Muench (Amer. J. Hyg. 27:493-497, 1938) and diluted in cell culture medium to yield 32 CCID50 (cell culture infectious dose, 50%) units per 0.1 ml. Antiviral assays were designed to test seven concentrations of each compound, from cytotoxic to noncytotoxic levels, in triplicate against each of the challenge viruses in microtiter plate wells containing suitable cell monolayers. To each of the replicate cell cultures were added 0.1 ml of the test drug solution and 0.1 ml of virus suspension. Cell controls containing medium alone, virus controls containing medium and virus, and drug cytotoxicity controls containing medium and each drug concentration were run simultaneously with the test samples assayed in each experiment. […]
(§4) Antiviral activity was determined by calculating the degree of inhibition of virus-induced CPE in drug-treated, virus-infected cell cultures by means of a virus rating (VR). The VR is a standard weighted measurement of antiviral activity taking into account both the degree of CPE inhibition and drug cytotoxicity, and is determined by a modification of the method of Ehrlich et al. (Ann. N.Y. Acad. Sci. 130: 5-16, 1965) as described below. […]
(§5) The VR was calculated as 0.1 of the sum of the numerical differences between the recorded CPE grade of each test well and that of the corresponding virus control in the culture plate. […]

Series [2] has as its system Herpes simplex type 2 (HSV-2) strain MS. Kind of series: CPE-inhibition assay, HSV-2 strain MS in Vero cells. It counts as cell-based, Herpes simplex virus type 2. The following applies: HSV-2 (MS), minimum cytotoxic concentration / ID50. The method, then: as §1, §2, §3
Mammalian cells were pregrown as monolayers in wells of COSTAR 96-well tissue culture plates using suitable cell culture media. […]
as §4, §5

Series [3] relates to Human Cytomegalovirus (HCMV) strain AD169. Kind of series: Virus yield reduction assay, HCMV in MRC5 cells. In kind it is cell-based. The method, then:
Human diploid embryonic lung (MRC5) cells were grown in 35 mm wells of 6-well tissue culture plates. Subconfluent cell monolayers were rinsed with phosphate-buffered saline (PBS) and were exposed to 0.5 ml/well of HCMV (strain AD169) suspension for 1.5 hours at 37° C. The virus suspension was diluted in MEM+2% fetal bovine serum (FBS) to yield a multipicity of infection (MOI) of approximately 0.1 plaque forming units (PFU)/cell. Following the virus adsorption period, the inocula were removed and infected cell layers were rinsed with PBS. Aliquiots (2.0 ml) of each test drug concentration (dissolved in MEM supplemented with 2% FBS) were dispensed into triplicate cell cultures: two virus-infected cultures and one uninfected cytotoxicity control culture (exposed to medium without virus for 1.5 hours). Untreated virus-infected control cultutres and untreated, uninfected cell control cutures were fed with medium alone. The culture plates were incubated at 37° C. in a humidified atmosphere of 2% CO2 in air. All cell culture fluids were replaced with fresh drug and medium 48 hours postinfection (p.i.). On Day 6 p.i., the cell layers were examined microscopically for cytopathogenic effect (CPE) and drug cytotoxicity. The test and virus control cultures were then harvested by subjecting the cell layers to one cycle of freeze-thawing. The cellular material was scraped into the ambient medium and the contents from replicate cultures were pooled, dispensed into cryotubes and stored at -135° C. The harvested test and virus control samples were thawed and the infectious virus yield was determined by plaque assay in MRC5 cells grown in 12-well cluster plates. Inhibiton of HCMV replication by each test compound was determined by comparing the progeny virus yields in the drug-treated cultures with the progeny virus yeild in the untreated, virus-infected control cultures.

Another series relates to Vero cells. Kind of series: Cell viability (MTT) of uninfected test-compound control wells. It counts as cell-based, African green monkey. The following applies: cell viability reduced by 25%. The method, then:
Vero cells were pregrown as monolayers in wells of COSTAR 96-well tisue culture plates using suitable cell culture media. Stock viruses were pretitered according to the method of Reed and Muench (Amer. J. Hyg. 27 493 (1938)) and diluted in cell culture medium to yield 32 CCID50 (cell culture infectious dose, 50%) units per 0.1 mL. Antiviral assays were designed to test six concentrations of each compound, from cytotoxic to noncytotoxic levels, in triplicate against each of the challenge viruses in microtiter plate wells containing cell monolayers. To each of the replicate cell cultures were added 0.1 mL of the test-compound solution and 0.1 mL of virus suspension. Two compounds were evaluated per plate. The following controls were included:
(3) Test-compound cytotoxicity controls containing uninfected, test-compound treated cells;
The covered plates were incubated at 37° C. in a humidified atmosphere containing 2% CO2. When cytopathogenic effect (CPE) in untreated virus control wells reached 100%, 20 μL of 3-(4,5-dimethyl-thiazol-2-yl)-2,5-diphenyl tetrazolium bromide (MTT) (dissolved in PBS at 5 mg/mL) was pipetted into each of the plate wells. The plates were incubated at 37° C. for six hours; then 40 μL of 30% SDS (in 0.02N HCl) was added to each well. After overnight incubation at 37° C. the blue color or the MTT formazan was measured spectrophotometrically at 570 nm. The optical density (OD) value of each culture is a function of the amount of formazan produced which is proportional to the number of viable cells. A computer program was utilized to calculate the percent (CPE) reciprocal of % CPE reduction) of the virus-infected wells and % cell viability of the uninfected test-compound control wells.
The IC50 value is the minimum test-compound concentration (μg/mL) that inhibited CPE by 50%, calculated by using a regression analysis program for semilog curve fitting. The TC25 value is the minimum test-compound concentration (μg/mL) that reduced cell viability by 25%.

For `Cc1cn([C@@H]2O[C@H](CO)[C@H]2CO)c(=O)[nH]c1=O` [Example 21, 1-([2'R,3'R,4'S]-3',4'-Bis(hydroxmethyl)-2'-oxetanyl)5-methyluracil], the results for the “TI (Therapeutic Index)” value in series [1] and in series [2] were 1552 and more than 7.2, respectively.

On to `O=c1ccn([C@@H]2O[C@H](CO)[C@H]2CO)c(=O)[nH]1` [Example 23, 1-([2'R,3'R,4'S]-3',4'-Bis(hydroxmethyl)-2'-oxetanyl)uracil], for which the “TI (Therapeutic Index)” value in series [1] was found to be 1.0. Moreover, the HCMV yield amounted to 4.7 log10 PFU/ml in series [3] (3.2 μg/ml); 4.5 log10 PFU/ml in series [3] (10 μg/ml); 4.4 log10 PFU/ml in series [3] (32 μg/ml); 4.0 log10 PFU/ml in series [3] (100 μg/ml); 3.0 log10 PFU/ml in series [3] (320 μg/ml).

Regarding `O=c1[nH]c(=O)n([C@@H]2O[C@H](CO)[C@H]2CO)cc1C=CCl` [Example 50, 1-([2'R,3'R,4'S]-3',4'-Bis(hydroxymethyl)-2'-oxetanyl)-5-(2-chloro-1-vinyl)uracil], the TC25 with Vero cells (HSV-1 (E-377) line) is more than 289 µg/mL.

As for `O=c1[nH]c(=O)n([C@@H]2O[C@H](CO)[C@H]2CO)cc1Br` [Example 43, 1-([2'R, 3'R, 4'S]-3', 4'-Bis(hydroxmethyl)-2'-oxetanyl)-5-bromouracil], the values for the TC25 with Vero cells (HSV-1 (E-377) line) and with Vero cells (HSV-2 (MS) line) were 18.4 µg/mL (≈ 59.9 µM) and more than 307 µg/mL, respectively.

Consider `C=Cc1cn([C@@H]2O[C@H](CO)[C@H]2CO)c(=O)[nH]c1=O` [Example 61, 1-([2'R, 3'R, 4'S]-3',4'-Bis(hydroxmethyl)-2'-oxetanyl)-5-vinyluracil], for which, in the series on Vero cells (HSV-2 (MS) line), the TC25 was not below 254 µg/mL.

Consider `Nc1ccn([C@@H]2O[C@H](CO)[C@H]2CO)c(=O)n1` [Example 22, 1-([2'R,3'R,4'S]-3',4'-Bis(hydroxmethyl)-2'-oxetanyl)cytosine], for which the results for the “TI (Therapeutic Index)” value in series [1] and in series [2] were 13.1 and 9.7, respectively. Moreover, the HCMV yield was 3.8 log10 PFU/ml in series [3] (0.032 μg/ml); 3.1 log10 PFU/ml in series [3] (0.1 μg/ml); 2.6 log10 PFU/ml in series [3] (0.32 μg/ml); 0.4 log10 PFU/ml in series [3] (1.0 μg/ml); less than 0.1 log10 PFU/ml in series [3] (3.2 μg/ml); less than 0.1 log10 PFU/ml in series [3] (10 μg/ml).

As to `O=c1[nH]c(=O)n([C@@H]2O[C@H](CO)[C@H]2CO)cc1I` [Example 42, 1-([2'R, 3'R, 4'S]-3', 4'-Bis(hydroxmethyl)-2'-oxetanyl)-5-iodouracil], the TC25 in the series on Vero cells (HSV-1 (E-377) line) and in the series on Vero cells (HSV-2 (MS) line) was more than 354 µg/mL throughout.

Regarding `O=c1[nH]c(=O)n([C@@H]2O[C@H](CO)[C@H]2CO)cc1C=CBr` [Example 44, 1-([2'R, 3'R, 4'S]-3', 4'-Bis(hydroxmethyl)-2'-oxetanyl)-5-(2-bromo-1-vinyl)uracil], in the series with Vero cells (HSV-1 (E-377) line), the TC25 is 289 µg/mL (≈ 868 µM).

For the compound `O=c1[nH]c(=O)n([C@@H]2O[C@H](CO)[C@H]2CO)cc1C=CI` [Example 49, 1([2'R,3'R,4'S]-3',4'-n-Bis(hydroxmethyl)-2'-oxetanyl)-5-(2-iodo-1-vinyl)uracil], the TC25 with Vero cells (HSV-1 (E-377) line) was more than 380 µg/mL.
